Here are results for twelve compounds from patent publication US9656945B2, “3-acyl-ingenols II” (LEO LABORATORIES LIMITED, priority 2010, dated 2017).

Experiment [1] concerns PMN's (polymorphonuclear leukocytes). The experiment is described as follows: Neutrophil oxidative burst assay. The class given is cell-based. As to conditions: Leukocyte, 40 min, read-out: Neutrophil oxidative burst Rel EC50 range. On the procedure: PMN's (polymorphonuclear leukocytes) were isolated and purified from fresh buffy coats by sequential sedimentation, density centrifugation and lysis of contaminating erythrocytes. Buffy coats were incubated with 2% methocel for 30-45 min to differentially sediment red blood cells. The leukocyte-rich supernatant was transferred to lymphoprep tubes to remove mononuclear cells by density centrifugation (400×g, 30 min). The pellet was resuspended and any remaining erythrocytes lysed using 0.2% NaCl for 30 sec before restoring isotonicity by the addition of 1.2% NaCl. This step was repeated until the cell pellet appears relatively free of red blood cells. Cells were resuspended in DPBS (Dulbecco's Phosphate Buffered Saline) (w.o. Ca^2+, Mg^2+) and the concentration adjusted to 1.4×10^6 cells/ml in HBSS (Hanks Balanced Salt solution) (w Ca^2+, Mg^2+) containing 0.1% BSA (Bovine Serum Albumin) and 5 mM glucose just prior to assay initiation. Titrated reference and test compounds were pre-mixed with HE (Hydroethidine) (10 μM final assay concentration) before addition to 96-well plates containing 2.5×10^5 cells. Following 40 min incubation at RT, changes in the respiratory burst was estimated by measuring fluorescence at 579 nm (excitation: 485 nm) using an Envision plate reader.
Test compound titration curves were fitted to a four-parameter sigmoidal curve after normalizing the effect of the test compound to the effect of the positive control (5×10^−7 M PEP0005). Rel EC50 denotes the concentration of test compound producing an effect that is midway between the fitted top and bottom. Abs EC50 is the concentration of test compound that provokes a response corresponding to 50% of the maximal effect associated with the positive control (5×10^−7 M PEP0005).

Experiment [2] has as its system Primary human epidermal keratinocytes, HeKa. The experiment is described as follows: HeKa cytokine release (IL-8) assay. Particulars: 6 h, read-out: HeKa cytokine release (IL-8) Rel EC50 range. The class given is cell-based. As to the method: Primary human epidermal keratinocytes, HeKa, were seeded (10.000 cells/well) in 96-well plates the day before the assay. Test compounds were diluted in DMSO (dimethyl sulfoxide) and further diluted in assay medium and pipetted into wells of 96 well-plates containing HeKa cells. The plates were incubated for 6 h at 37° C. in humidified air with 5% CO2. Plates are centrifuged briefly to spin down cells at 4° C., the supernatant was removed and analysed by Meso Scale Discovery (MSD) 4-spot cytokine assay (Pro-inflammatory II Ultra Sensitive kit, MSD, MD, USA). The MSD assay employs a sandwich immunoassay format where capture antibodies were coated in a patterned array on the bottom of the wells of a 4-Spot-Multi-MSD plate. Standard samples were incubated in the MULTI-SPOT plates as well, and the cytokine (IL-8) binds to its corresponding capture antibody spot. The cytokine level was quantitated on a SECTOR™ Imager using a cytokine-specific Detection Antibody labelled with MSD SULFO-TAG™ reagent.
Test compound titration curves were fitted to a four-parameter sigmoidal curve after normalizing the effect of the test compound to the effect of the positive control (1.5×10^−7 M PEP0005). Rel EC50 denotes the concentration of test compound producing an effect that is midway between the fitted top and bottom.

As a reminder, the EC50 is the concentration that produces a half-maximal response.

For `CC1=C[C@]23C(=O)[C@@H](C=C(CO)[C@@H](O)[C@]2(O)[C@H]1OC(=O)C1CC1)[C@H]1[C@@H](C[C@H]3C)C1(C)C` [Compound 301, Ingenol 3-(cyclopropanecarboxylate)], the results for the EC50 in experiment [1] and in experiment [2] were 20 to 100 nM and greater than 100 nM, respectively.

Turning to `CC1=C[C@]23C(=O)[C@@H](C=C(CO)[C@@H](O)[C@]2(O)[C@H]1OC(=O)C1CCC1)[C@H]1[C@@H](C[C@H]3C)C1(C)C` [Compound 303, Ingenol 3-(cyclobutanecarboxylate)], the EC50 in experiment [1] was less than 20 nM; in experiment [2], greater than 100 nM.

Turning to `CC1=C[C@]23C(=O)[C@@H](C=C(CO)[C@@H](O)[C@]2(O)[C@H]1OC(=O)C1CCCC1)[C@H]1[C@@H](C[C@H]3C)C1(C)C` [Compound 304, Ingenol 3-(cyclopentanecarboxylate)], the values for the concentration for a half-maximal effect (EC50) in experiment [1] and in experiment [2] were less than 20 nM and 20 to 100 nM, respectively.

`CC1=C[C@]23C(=O)[C@@H](C=C(CO)[C@@H](O)[C@]2(O)[C@H]1OC(=O)C1=CCCCC1)[C@H]1[C@@H](C[C@H]3C)C1(C)C` [Compound 305, Ingenol 3-(cyclohexene-1-carboxylate)]: the half-maximal effective concentration (EC50) in experiment [1] and in experiment [2] was less than 20 nM in each case.

`CC1=C[C@]23C(=O)[C@@H](C=C(CO)[C@@H](O)[C@]2(O)[C@H]1OC(=O)C1(C#N)CCCCC1)[C@H]1[C@@H](C[C@H]3C)C1(C)C` [Compound 309, Ingenol 3-(1-cyano-cyclohexanecarboxylate)]: the EC50 in experiment [1] is less than 20 nM.

Consider `CC1=C[C@]23C(=O)[C@@H](C=C(CO)[C@@H](O)[C@]2(O)[C@H]1OC(=O)c1ccccc1C)[C@H]1[C@@H](C[C@H]3C)C1(C)C` [Compound 310, Ingenol 3-(2-methyl-benzoate)], for which the 50% effective concentration (EC50) in experiment [1] and in experiment [2] was less than 20 nM throughout.

Regarding `CC1=C[C@]23C(=O)[C@@H](C=C(CO)[C@@H](O)[C@]2(O)[C@H]1OC(=O)c1c(Cl)cccc1Cl)[C@H]1[C@@H](C[C@H]3C)C1(C)C` [Compound 317, Ingenol 3-(2,6-dichloro-benzoate)], the EC50 in experiment [1] is 20 to 100 nM; in experiment [2] it was less than 20 nM.

With `CC1=C[C@]23C(=O)[C@@H](C=C(CO)[C@@H](O)[C@]2(O)[C@H]1OC(=O)c1c(Cl)cc(Cl)cc1Cl)[C@H]1[C@@H](C[C@H]3C)C1(C)C` [Compound 318, Ingenol 3-(2,4,6-trichloro-benzoate)], the EC50 in experiment [1] was 20 to 100 nM; in experiment [2], less than 20 nM.

In the case of `COc1cccc(N)c1C(=O)O[C@H]1C(C)=C[C@]23C(=O)[C@@H](C=C(CO)[C@@H](O)[C@]12O)[C@H]1[C@@H](C[C@H]3C)C1(C)C` [Compound 334, Ingenol 3-(2-amino-6-methoxy-benzoate)], the EC50 in experiment [1] and in experiment [2] was 20 to 100 nM in each case.

On to `CC(=O)Nc1cccc(C)c1C(=O)O[C@H]1C(C)=C[C@]23C(=O)[C@@H](C=C(CO)[C@@H](O)[C@]12O)[C@H]1[C@@H](C[C@H]3C)C1(C)C` [Compound 337, Ingenol 3-(2-acetylamino-6-methyl-benzoate)], for which the concentration giving a half-maximal response (EC50) in experiment [1] and in experiment [2] was greater than 100 nM in each case.

As to `CC1=C[C@]23C(=O)[C@@H](C=C(CO)[C@@H](O)[C@]2(O)[C@H]1OC(=O)c1c(C)cccc1NC(=O)C(C)C)[C@H]1[C@@H](C[C@H]3C)C1(C)C` [Compound 338, Ingenol 3-(2-methyl-6-(2-methylpropanoylamino)-benzoate)], the EC50 in experiment [1] and in experiment [2] was greater than 100 nM each time.

In the case of `CC1=C[C@]23C(=O)[C@@H](C=C(CO)[C@@H](O)[C@]2(O)[C@H]1OC(=O)C1C(C)(C)C1(C)C)[C@H]1[C@@H](C[C@H]3C)C1(C)C` [Compound 344, Ingenol 3-(2,2,3,3-tetramethylcyclopropylcarboxylate)], the EC50 in experiment [1] and in experiment [2] was less than 20 nM each time.
